Read-outs that look alike come from different tables or passages of the source. Each block holds one compound with its values, some of them ahead of it.
Columns and labels:
[1] = Phase I open-label 2-arm crossover relative bioavailability study, plasma pharmacokinetics; conditions: for concentration at 0.5 h / concentration at 1 h / concentration at 2 h / concentration at 3 h: both, human, in vivo
Method: A single center, randomized, single and multiple doses, open-label, 2-period, 2-sequence, crossover study was carried out on male and female volunteers.
A Phase I Open-Label, 2-Arm Crossover Study to Evaluate the Relative Bioavailability of the pharmaceutical composition, also herein as test formulation (Rifabutin/Amoxicillin/Omeprazole 12.5 mg/250 mg/10 mg) capsules given 3 times a day, every 8 hours, compared to the concomitant administration of the three drug substance components in fasted healthy volunteers (Table 13). Test formulation (Treatment-1) was analyzed in comparison to the pharmacokinetics of the reference drugs rifabutin, amoxicillin and omeprazole given concomitantly (Treatment-2) under fasting conditions.
Treatment-1: 4× Test formulation Amoxicillin, Rifabutin, Omeprazole 250 mg/12.5 mg/10 mg capsules (Test) given three times daily, in the morning, afternoon and evening, 8 hours apart, for a total daily oral dose of 3000 mg/150 mg/120 mg.
Treatment-2: 1× Mycobutin® 150 mg capsule (Reference-1)+2× Amoxicillin 500 mg capsule (Reference-2)+1× Prilosec® 40 mg delayed-release capsule (Reference-3) taken concomitantly each given three times daily, in the morning, afternoon and evening, 8 hours apart, for a total daily oral dose of 150 mg rifabutin/3000 mg amoxicillin/120 mg omeprazole.
Reference-1 Product, Dose and Mode of Administration: • Name: Mycobutin® • Dosage form/Route of administration: Capsule/Oral • Regimen: Single 150 mg dose (1×150 mg) given once in the morning, for a total daily oral dose of 150 mg.
Reference-2 Product, Dose and Mode of Administration: • Name: Amoxicillin • Dosage form/Route of administration: Capsule/Oral • Regimen: Single 1000 mg dose (2×500 mg) given three times daily, in the morning, afternoon and evening, 8 hours apart, for a total of a total daily oral dose of 3000 mg.
Reference-3 Product, Dose and Mode of Administration: • Name: Prilosec® • Dosage form/Route of administration: Delayed Release Capsule/Oral • Regimen: Single 40 mg dose (1×40 mg), given three times daily, in the morning, afternoon and evening, 8 hours apart, for a total of a total daily oral dose of 120 mg
Treatments: • Treatment-1: 4 capsules of the Test formulation was given three times daily, in the morning, afternoon and evening, 8 hours apart, for a total daily oral dose of 150 mg rifabutin/3000 mg amoxicillin/120 mg omeprazole) • Treatment-2: Reference-1 drug (Rifabutin) was given once in the morning together with 2 capsules of Reference-2 drug (amoxicillin) and 1 capsule of Reference-3 drug (Omeprazole). Each reference drug was given three times daily, in the morning, afternoon and evening, 8 hours apart, for a total daily oral dose of 150 mg rifabutin/3000 mg amoxicillin/120 mg omeprazole).
Single and multiple oral doses were administered under fasting conditions in each study period. The drug administrations were separated by a wash-out of 14 calendar days.
For each Treatment in each study period, 78 blood samples were collected on 26 occasions.
Main absorption and disposition parameters using a non-compartmental approach with a log-linear terminal phase assumption. Trapezoidal rule to estimate the area under the curve. The pharmacokinetic parameters for this study were to be Cmax, Tmax, Cmin, C24, Clast, Tlast, AUC0-24, AUC∞, Kel and T1/2el.
Statistical analysis of Tmax based on a non-parametric approach. Statistical analysis of all other pharmacokinetic parameters based on a parametric ANOVA model. […] ANOVA Model: • fixed factors: sequence, period, treatment • random factor: subject (nested within sequence) Safety: • Descriptive statistics.

[2] = Assay and related substances under accelerated conditions 40° C./75% RH; assay type: physicochemical
[3] = In vitro dissolution assay, 900 ml 0.01 N HCl, 100 rpm, baskets apparatus; assay type: physicochemical
Method: (§1) In some embodiments, an average of no less than 80% of amoxicillin is released in 60 min at 100 rpm in a baskets apparatus (900 ml 0.01 N HCl, at 100 rpm in a baskets apparatus). In some embodiments, an average of 90%, 96%, and 97% of the amoxicillin is released in an in vitro dissolution assay at 20, 30, and 45 minutes, respectively.
as §1, with “75%” for “80%”, “rifabutin” for “amoxicillin”, “45” for “60”, “95, 97,” for “90%, 96%,”, “98%” for “97%”

H. pylori = conditions: cited from earlier work
plasma proteins = conditions: cited from earlier work
clinical = conditions: human, in vivo, 50 mg
[4] = cited from earlier work
[5] = cited from earlier work; remark: listed apart in the source
[6] = cited from earlier work; remark: listed apart in the source
[7] = single oral 150 mg dose of rifabutin capsules, fasting
[8] = single oral 1000 mg dose of amoxicillin capsules, fasting

Compound: CO[C@H]1/C=C/O[C@@]2(C)Oc3c(C)c(O)c4c(c3C2=O)C2=NC3(CCN(CC(C)C)CC3)NC2=C(NC(=O)/C(C)=C\C=C\[C@H](C)[C@H](O)[C@@H](C)[C@@H](O)[C@@H](C)[C@H](OC(C)=O)[C@@H]1C)C4=O [Rifabutin]
extent of absorption of rifabutin, single 150 mg capsule relative to test formulation tid ([1]; 150 mg rifabutin over 24 hours in both treatments): 1.5 times | concentration at 0.5 h [1]: 5.52 ng/mL | concentration at 1 h [1]: 28.1 ng/mL | concentration at 2 h [1]: 66.1 ng/mL | concentration at 3 h [1]: 72.5 ng/mL | Related Substances, Total ([2]; T = 0): 1.13 % area | Related Substances, Total ([2]; T = 1 month, 40° C./75% RH): 2.11 % area | average released in in vitro dissolution assay ([3]; 20 minutes): 95% | average released in in vitro dissolution assay ([3]; 30 minutes): 97% | average released in in vitro dissolution assay ([3]; 45 minutes): 98% | mean rate of H. pylori resistance (H. pylori; in general): 1.3% | mean rate of H. pylori resistance (H. pylori; patients naïve to H. pylori eradication treatment): 0.6% | bound to plasma proteins (plasma proteins; concentration range of 50 to 1000 ng/ml): About 85% | Cmax (clinical): ~63 ng/mL | mean systemic clearance ([4]; healthy adult volunteers, single oral dose): 0.69 (±0.32) L/hour/kg | Cmax ([4]; in vivo, po, 150 mg): 188 ng/mL | dose absorbed ([4]; in vivo, po): at least 53% | time to peak plasma concentrations ([4]; in vivo, po): 2 to 4 h | contribution of renal and of biliary excretion of unchanged drug to systemic clearance ([4]; in vivo): approximately 5% | decrease of AUC following multiple dosing ([4]; in vivo): 38% | steady-state trough levels (Cp, Cminss, 24-hour post dose) ([4]; in vivo): 50 to 65 ng/mL | initial half-life ([4]; plasma elimination, biphasic): approximately 4 hours | T1/2el [4, 7]: 40 h | Tmax [4, 7]: 3 h

concentration at 0.5 h [1]: 2380 ng/mL | concentration at 1 h [1]: 8920 ng/mL | concentration at 2 h [1]: 14700 ng/mL | concentration at 3 h [1]: 11300 ng/mL | Related Substances, Total ([2]; T = 0): 2.21 % area | Related Substances, Total ([2]; T = 1 month, 40° C./75% RH): 3.01 % area | average released in in vitro dissolution assay ([3]; 20 minutes): 90% | average released in in vitro dissolution assay ([3]; 30 minutes): 96% | average released in in vitro dissolution assay ([3]; 45 minutes): 97%
Compound: CC1(C)S[C@@H]2[C@H](NC(=O)[C@H](N)c3ccc(O)cc3)C(=O)N2[C@H]1C(=O)O [Amoxicillin]
T1/2el ([5]; in vivo, po, 1000 mg): 1.15 h | time to peak serum concentrations ([5]; in vivo, po): 1 to 2 h | peak serum concentrations relative to equivalent dose of oral ampicillin ([5]; in vivo): 2-2.5 times | stability in gastric acid ([5]; in vivo): stable in the presence of gastric acid | Cmax [5, 8]: 14000 ng/mL | Tmax [5, 8]: 1.65 h

concentration at 0.5 h [1]: 85.8 ng/mL | concentration at 1 h [1]: 613 ng/mL | concentration at 2 h [1]: 828 ng/mL | concentration at 3 h [1]: 466 ng/mL
Compound: COc1ccc2[nH]c([S+]([O-])Cc3ncc(C)c(OC)c3C)nc2c1 (centres unmarked) [Omeprazole]
plasma protein binding (plasma proteins): about 95% | T1/2el ([6]; in vivo, po, 40 mg): 1 h | drug absorbed from the gastrointestinal tract ([6]; in vivo, po): approximately 35% | dose excreted in the feces ([6]; in vivo): 20% | dose recovered as urinary metabolites ([6]; in vivo): 80% | time to completion of absorption ([6]; in vivo): ≤ 4 h | average half-life of the terminal phase ([6]; plasma concentration-time curve): approximately 40 minutes | Tmax ([6]; single oral 40 mg dose of omeprazole delayed-release capsules, fasting): 1.75 h

Compound: 31-hydroxyrifabutin
plasma metabolite: parent area under the curve ratio ([4]; in vivo): 0.07

Compound: 25-O-desacetylrifabutin
plasma metabolite: parent area under the curve ratio ([4]; in vivo): 0.10
